Assay results as given in US12121614B2, “Delayed release composition for peroral administration” (VICORE PHARMA AB, priority 2020, dated 2024).

Experiments:
[1] = Phase I clinical trial: safety and tolerability of C21 in healthy subjects; type: in vivo, human; settings: healthy male and female subjects, gradual escalation of dose
Description: A Phase I clinical trial was conducted to evaluate the safety, tolerability, and pharmacokinetics of C21 in healthy male and female subjects. The study design allowed a gradual escalation of dose with intensive clinical data and PK monitoring to ensure the safety and wellbeing of subjects.
The study was designed and conducted in accordance with the CRO's standard operating procedures (SOPs), which comply with the ethical principles laid down in the International Council for Harmonisation (ICH) Good Clinical Practice (GCP) guidance as required by the major regulatory authorities, and in accordance with the Declaration of Helsinki as amended by the 48th General Assembly in October 1996.

[2] = Dissolution studies of C21 sodium salt in buffers of different pH; type: physicochemical; settings: Zwitterion formed at intermediated pHs; conclusion from experiments (A)-(E)
Description: 50.7 mg of C21 sodium salt (Ardena, Riga, Latvia) was added to 900 mL of 0.09M carbonate buffer (pH 8.95) at a temperature of 37±3° C. with stirring. […] After 15 minutes of stirring, 2M acetic acid solution was added dropwise to provide a pH of 4.52. Evolution CO2 was noted. […] After additional stirring for a further 1.5 hours, 1M NaOH was added to increase pH to 6.8.
51.2 mg of C21 sodium salt was added to 900 mL of acetate buffer (pH 4.4) at the same temperature with stirring. […] After stirring for 1 hour, 1M NaOH solution was added dropwise to increase the pH to 7.2.
53.2 mg of C21 sodium salt was added to 900 mL 0.1M of HCl buffer (pH 1.0) at the same temperature with stirring. […] After 20 minutes of stirring, 1M NaOH solution was added dropwise to increase the pH to 4.5.
51.0 mg of C21 sodium salt was added to 900 mL of 0.1M citrate buffer (pH 4.42) at the same temperature with stirring. The added compound formed a thin slurry. It seemed that nothing had dissolved.
50.8 mg of C21 sodium salt was added to 900 mL of an acetate buffer (pH 4.49) at the same temperature. […] After stirring for 1 hour, a 1M NaOH solution was added dropwise to increase the pH to 6.8.

solubility of C21's Zwitterion [2]: insoluble
Compound: CCCCOC(=O)NS(=O)(=O)c1sc(CC(C)C)cc1-c1ccc(Cn2ccnc2)cc1 [C21, N-butyloxycarbonyl-3-(4-imidazol-1-ylmethylphenyl)-5-iso-butylthiophene-2-sulfonamide]
safety and tolerability [1]: safe and generally well tolerated
serious adverse events [1]: No serious adverse events
